Target: human PDE1b enzyme (Homo sapiens (Human), UniProt Q01064)
Assay: PDE1b inhibitory assay (IMAP TR-FRET)
Details: for PDE1b (pEC50): negative log of half-maximal molar inhibitory concentration, 200 nM FAM-cAMP, reported as ranges
Protocol: PDE1b inhibition was determined by an IMAP TR-FRET assay. The IMAP TR-FRET PDE assay was optimized for concentration of enzyme, Calmodulin, cAMP or cGMP substrate, DMSO tolerance, and incubation time.
After a brief centrifugation, the plates were incubated for 30 minutes at room temperature. The assay was terminated by adding 5 μL IMAP binding reagent/Tb complex (Molecular Devices, Sunnyvale, Calif.) to each well.
Plates were incubated 1 hour at room temperature and read on a Viewlux multimode plate reader (Perkin Elmer). The instrument was set to excite using the DUG11 filter and measure using 490/10 nm and 520/10 nm filters. Ratios of acceptor and donor were then calculated.
For EC50 calculations, the values of % efficacy versus a series of compound concentrations were then plotted using non-linear regression analysis of sigmoidal dose-response curves generated with the equation Y=B+(T−B)/1+10((Log EC50−X)×Hill Slope), where Y=percent activity, B=minimum percent efficacy, T=maximum percent efficacy, X=logarithm of compound and Hill Slope=slope factor or Hill coefficient. The EC50 value was determined by the concentration causing a half-maximal percent efficacy.

Row | Compound | EC50 [µM] | PDE1b (pEC50)
1 | O=c1n(Cc2ccc(Cl)cc2)c2sc3c(c2c2ncnn12)CCOC3 [Example 87, 6-(4-Chlorobenzyl)-6,8,10,11-tetrahydro-5H-pyrano[4′,3′:4,5]thieno[3,2-e][1,2,4]triazolo[1,5-c]pyrimidin-5-one] | 0.1 to 1 | 
2 | Cc1ccc(Cn2c(=O)n3ncnc3c3c4c(sc32)COCC4)cc1 [Example 88, 6-(4-Methylbenzyl)-6,8,10,11-tetrahydro-5H-pyrano[4′,3′:4,5]thieno[3,2-e][1,2,4]triazolo[1,5-c]pyrimidin-5-one] | 0.1 to 1 | 
3 | O=c1n(Cc2ccc(C(F)(F)F)cc2)c2sc3c(c2c2ncnn12)CCOC3 [Example 89, 6-(4-(Trifluoromethyl)benzyl)-6,8,10,11-tetrahydro-5H-pyrano[4′,3′:4,5]thieno[3,2-e][1,2,4]triazolo[1,5-c]pyrimidin-5-one] | 1 to 10 | 
4 | COc1ccc(Cn2c(=O)n3ncnc3c3c4c(sc32)COCC4)cc1 [Example 90, 6-(4-Methoxybenzyl)-6,8,10,11-tetrahydro-5H-pyrano[4′,3′:4,5]thieno[3,2-e][1,2,4]triazolo[1,5-c]pyrimidin-5-one] |  | >7
5 | O=c1n(Cc2ccc(Cl)c(Cl)c2)c2sc3c(c2c2ncnn12)CCOC3 [Example 91, 6-(3,4-Dichlorobenzyl)-6,8,10,11-tetrahydro-5H-pyrano[4′,3′:4,5]thieno[3,2-e][1,2,4]triazolo[1,5-c]pyrimidin-5-one] | 0.1 to 1 | 
6 | O=c1n(Cc2ccc(F)cc2)c2sc3c(c2c2ncnn12)CCOC3 [Example 92, 6-(4-Fluorobenzyl)-6,8,10,11-tetrahydro-5H-pyrano[4′,3′:4,5]thieno[3,2-e][1,2,4]triazolo[1,5-c]pyrimidin-5-one] | 1 to 10 | 
7 | O=c1n(Cc2ccc(Cl)c(F)c2)c2sc3c(c2c2ncnn12)CCOC3 [Example 93, 6-(4-Chloro-3-fluorobenzyl)-6,8,10,11-tetrahydro-5H-pyrano[4′,3′:4,5]thieno[3,2-e][1,2,4]triazolo[1,5-c]pyrimidin-5-one] | 0.1 to 1 | 
8 | O=c1n(Cc2ccc(Cl)cc2F)c2sc3c(c2c2ncnn12)CCOC3 [Example 94, 6-(4-Chloro-2-fluorobenzyl)-6,8,10,11-tetrahydro-5H-pyrano[4′,3′:4,5]thieno[3,2-e][1,2,4]triazolo[1,5-c]pyrimidin-5-one] | 0.1 to 1 | 
9 | COc1ccc(Cn2c(=O)n3ncnc3c3c4c(sc32)COCC4)cc1F [Example 95, 6-(3-Fluoro-4-methoxybenzyl)-6,8,10,11-tetrahydro-5H-pyrano[4′,3′:4,5]thieno[3,2-e][1,2,4]triazolo[1,5-c]pyrimidin-5-one] | 0.1 to 1 | 
10 | O=c1n(Cc2ccc(OC(F)(F)F)cc2)c2sc3c(c2c2ncnn12)CCOC3 [Example 96, 6-(4-(Trifluoromethoxy)benzyl)-6,8,10,11-tetrahydro-5H-pyrano[4′,3′:4,5]thieno[3,2-e][1,2,4]triazolo[1,5-c]pyrimidin-5-one] | 1 to 10 | 
11 | CCOc1ccc(Cn2c(=O)n3ncnc3c3c4c(sc32)COCC4)cc1 [Example 97, 6-(4-Ethoxybenzyl)-6,8,10,11-tetrahydro-5H-pyrano[4′,3′:4,5]thieno[3,2-e][1,2,4]triazolo[1,5-c]pyrimidin-5-one] | 1 to 10 | 
12 | COc1c(F)cc(Cn2c(=O)n3ncnc3c3c4c(sc32)COCC4)cc1F [Example 98, 6-(3,5-Difluoro-4-methoxybenzyl)-6,8,10,11-tetrahydro-5H-pyrano[4′,3′:4,5]thieno[3,2-e][1,2,4]triazolo[1,5-c]pyrimidin-5-one] |  | <5
13 | O=c1n(Cc2ccc(Cl)cc2)c2sc3c(c2c2ncnn12)CCNC3 [Example 99, 6-(4-Chlorobenzyl)-8,9,10,11-tetrahydropyrido[4′,3′:4,5]thieno[3,2-e][1,2,4]triazolo[1,5-c]pyrimidin-5(6H)-one] | 1 to 10 | 
14 | COc1ccc(Cn2c(=O)n3ncnc3c3c4c(sc32)NCCC4)cc1OC [Example 100, 6-(3,4-Dimethoxybenzyl)-8,9,10,11-tetrahydropyrido[3′,2′:4,5]thieno[3,2-e][1,2,4]triazolo[1,5-c]pyrimidin-5(6H)-one] | 1 to 10 | 
15 | COc1ccc(Cn2c(=O)n3nccc3c3cc(CN4C[C@@H](C)O[C@@H](C)C4)sc32)cc1 [Example 104, 2-(((2S,6R)-2,6-Dimethylmorpholino)methyl)-4-(4-methoxybenzyl)pyrazolo[1,5-c]thieno[3,2-e]pyrimidin-5(4H)-one] | 0.1 to 1 | >7
16 | O=c1n(Cc2ccc(Cl)cc2)c2sc3c(c2c2ncnn12)CCN(CC(F)(F)F)C3 [Example 107, 6-(4-Chlorobenzyl)-9-(2,2,2-trifluoroethyl)-8,9,10,11-tetrahydropyrido[4′,3′:4,5]thieno[3,2-e][1,2,4]triazolo[1,5-c]pyrimidin-5 (6H)-one] | 0.1 to 1 | 

Row | Compound | EC50 [µM] | PDE1b (pEC50)
17 | COc1ccc(Cn2c(=O)n3ncnc3c3c4c(sc32)CN(Cc2nnc(C)s2)CC4)cc1 [Example 108, 6-(4-Methoxybenzyl)-9-((5-methyl-1,3,4-thiadiazol-2-yl)methyl)-8,9,10,11-tetrahydropyrido[4′,3′:4,5]thieno[3,2-e][1,2,4]triazolo[1,5-c]pyrimidin-5(6H)-one] |  | >7
18 | COc1ccc(Cn2c(=O)n3ncnc3c3c4c(sc32)CN(CC2CC2)CC4)cc1 [Example 110, 9-(Cyclopropylmethyl)-6-(4-methoxybenzyl)-8,9,10,11-tetrahydropyrido[4′,3′:4,5]thieno[3,2-e][1,2,4]triazolo[1,5-c]pyrimidin-5 (6H)-one] |  | >7
19 | COc1ccc(Cn2c(=O)n3ncnc3c3c4c(sc32)CN(CC2(C)COC2)CC4)cc1 [Example 111, 6-(4-Methoxybenzyl)-9-((3-methyloxetan-3-yl)methyl)-8,9,10,11-tetrahydropyrido[4′,3′:4,5]thieno[3,2-e][1,2,4]triazolo[1,5-c]pyrimidin-5 (6H)-one] |  | >7
20 | COc1ccc(Cn2c(=O)n3ncnc3c3c4c(sc32)CN(CCCSC)CC4)cc1 [Example 112, 6-(4-Methoxybenzyl)-9-(3-(methylthio)propyl)-8,9,10,11-tetrahydropyrido[4′,3′:4,5]thieno[3,2-e][1,2,4]triazolo[1,5-c]pyrimidin-5(6H)-one] |  | >7
21 | COc1ccc(Cn2c(=O)n3ncnc3c3c4c(sc32)CN(CC2CCOC2)CC4)cc1 (centres unmarked) [Example 113, 6-(4-Methoxybenzyl)-9-((tetrahydrofuran-3-yl)methyl)-8,9,10,11-tetrahydropyrido[4′,3′:4,5]thieno[3,2-e][1,2,4]triazolo[1,5-c]pyrimidin-5(6H)-one] |  | >7
22 | COc1ccc(Cn2c(=O)n3ncnc3c3c4c(sc32)CN(Cc2ccc3c(c2)OC(F)(F)O3)CC4)cc1 [Example 114, 9-((2,2-Difluorobenzo[d][1,3]dioxol-5-yl)methyl)-6-(4-methoxybenzyl)-8,9,10,11-tetrahydropyrido[4′,3′:4,5]thieno[3,2-e][1,2,4]triazolo[1,5-c]pyrimidin-5 (6H)-one] | 0.1 to 1 | 
23 | COc1ccc(Cn2c(=O)n3ncnc3c3c4c(sc32)CN(CC(C)(C)C)CC4)cc1 [Example 115, 6-(4-Methoxybenzyl)-9-neopentyl-8,9,10,11-tetrahydropyrido[4′,3′:4,5]thieno[3,2-e][1,2,4]triazolo[1,5-c]pyrimidin-5(6H)-one] |  | >7
24 | COc1ccc(Cn2c(=O)n3ncnc3c3c4c(sc32)CN(Cc2ncccn2)CC4)cc1 [Example 116, 6-(4-Methoxybenzyl)-9-(pyrimidin-2-ylmethyl)-8,9,10,11-tetrahydropyrido[4′,3′:4,5]thieno[3,2-e][1,2,4]triazolo[1,5-c]pyrimidin-5 (6H)-one] |  | >7
25 | COc1ccc(Cn2c(=O)n3ncnc3c3c4c(sc32)CN(CC2CCCCO2)CC4)cc1 (centres unmarked) [Example 117, 6-(4-Methoxybenzyl)-9-((tetrahydro-2H-pyran-2-yl)methyl)-8,9,10,11-tetrahydropyrido[4′,3′:4,5]thieno[3,2-e][1,2,4]triazolo[1,5-c]pyrimidin-5(6H)-one] |  | >7
26 | COc1ccc(Cn2c(=O)n3ncnc3c3c4c(sc32)CN(CCCS(C)(=O)=O)CC4)cc1 [Example 118, 6-(4-Methoxybenzyl)-9-(3-(methylsulfonyl)propyl)-8,9,10,11-tetrahydropyrido[4′,3′:4,5]thieno[3,2-e][1,2,4]triazolo[1,5-c]pyrimidin-5 (6H)-one] |  | >7
27 | COc1ccc(Cn2c(=O)n3ncnc3c3c4c(sc32)CN(Cc2ccncn2)CC4)cc1 [Example 119, 6-(4-Methoxybenzyl)-9-(pyrimidin-4-ylmethyl)-8,9,10,11-tetrahydropyrido[4′,3′:4,5]thieno[3,2-e][1,2,4]triazolo[1,5-c]pyrimidin-5(6H)-one] |  | >7
28 | COc1ccc(Cn2c(=O)n3ncnc3c3c4c(sc32)CN(Cc2ccccn2)CC4)cc1 [Example 120, 6-(4-Methoxybenzyl)-9-(pyridin-2-ylmethyl)-8,9,10,11-tetrahydropyrido[4′,3′:4,5]thieno[3,2-e][1,2,4]triazolo[1,5-c]pyrimidin-5 (6H)-one] |  | >7
29 | COc1ccc(Cn2c(=O)n3ncnc3c3c4c(sc32)CN(Cc2ccncc2)CC4)cc1 [Example 121, 6-(4-Methoxybenzyl)-9-(pyridin-4-ylmethyl)-8,9,10,11-tetrahydropyrido[4′,3′:4,5]thieno[3,2-e][1,2,4]triazolo[1,5-c]pyrimidin-5(6H)-one] |  | >7
30 | COc1ccc(Cn2c(=O)n3ncnc3c3c4c(sc32)CN(Cc2nccn2C)CC4)cc1 [Example 122, 6-(4-Methoxybenzyl)-9-((1-methyl-1H-imidazol-2-yl)methyl)-8,9,10,11-tetrahydropyrido[4′,3′:4,5]thieno[3,2-e][1,2,4]triazolo[1,5-c]pyrimidin-5(6H)-one] |  | >7
31 | COc1ccc(Cn2c(=O)n3ncnc3c3c4c(sc32)CN(Cc2scnc2C)CC4)cc1 [Example 123] |  | >7
